Measurements from US5242942A, “Anticonvulsant fructopyranose cyclic sulfites and sulfates” (McNeilab, Inc., priority 1992, dated 1993).

Legend:
rat diuresis study = assay type: in vivo, rat (male Wistar); conditions: 6.3 mg/kg PO, average of five animals
Excerpt: Evidence for the inhibition of carbonic anhydrase by compounds of the formula (I) can also be obtained by a diuresis study, such as described by A. Weiner in Goodman and Gilman's The Pharmacological Basis of Therapeutics, 8th ed.; Goodman Gilman, A.; Rall, T. W.; Nies, A. S.; Taylor, P., Eds.; Pergamon Press: New York, 1990; pp 716-718. An increase in urine akalinity accompanied with an increase in water intake and urine output provides an indirect indication of carbonic anhydrase inhibition activity. Male Wistar rats having a weight of 250-300 g were dosed orally (PO) and housed in cages that allowed for the quantitative measure of fluid intake and urine output. Water intake and urine output were measured at 24 hours versus control, whereas urine pH, obtained via pH meter, was measured at 4 and 24 hours versus control. The results of this study, which are the average of five animals, are reported below in Table III. […] Such data is also an indication of the usefulness of the compounds of formula (I) as diuretics in the treatment of hypertension, congestive heart failure and other types of edema. The determination of suitable dosages for such compounds for the treatment of hypertension and congestive heart failure and other types of edema is within the skill of the art.

carbonic anhydrase = carbonic anhydrase inhibition, 18O-exchange mass spectrometry, disrupted hepatocytes; assay type: biochemical; conditions: 250 μM, disrupted male rat hepatocytes, 37° C., pH 7.4, 25 mM aqueous NaHCO3
Procedure: Compounds of formula (I) are also inhibitors of carbonic anhydrase, and as such, are useful in the treatment of glaucoma. Such activity may be determined by mass spectrometry using the ^18 O-exchange technique described by Dodgson and Forster in J. Appl. Physiol. 1983, 55, 1293. Specifically, this assay was conducted by first killing the male rats and then removing their livers. Their livers were placed in a cold physiological saline solution. The liver tissue was then minced with scissors and shaken in a protolytic enzyme solution to promote disassociation of the hepatocytes. The dissociated hepatocytes were then washed in a cold saline solution and used for determination of carbonic anhydrase activity.
[…] The continuous readout of the mass 44 peak gives a continuous record of the constancy of the pH of the reaction medium since the height of the mass 44 peak is very sensitive to pH. The pH of the medium was read from the pH meter and used to calibrate the mass 44 peaks at regular intervals.
An 8 mL glass chamber, with openings for a pH electrode and sample insertion, was used for continuous mass spectrophotometric measurement of C^16 O^16 O (mass 44) and C^16 O^18 O (mass 46) dissolved in aqueous bicarbonate buffer. […] The pH was constantly monitored by a combination glass pH electrode (Radiometer model gK 2641C). […]

CC1(C)O[C@H]2[C@@H]3OS(=O)(=O)O[C@@H]3CO[C@@]2(COS(N)(=O)=O)O1 [Example 1, 2,3-O-(1-Methylethylidene)-4,5-O-sulfonyl-β-D-fructopyranose Sulfamate]
Urine pH (rat diuresis study; 4 hours, control 6.98): 8.99 | Urine pH (rat diuresis study; 24 hours, control 6.43): 7.03 | Water Intake (rat diuresis study; 24 hours, control 15.0): 24.0 mL | Urine Output (rat diuresis study; 24 hours, control 17.6): 28.3 mL | inhibition of all hepatocyte carbonic anhydrase (carbonic anhydrase): Maximal inhibition
